Laboratory results taken from the supplement of paper PMC10307832.

Tests used:
Assay in all cases: relative viability (nuclei count vs DMSO), 5 days (fraction); higher = more cells survive
[1] = tested on: NCI-H2170
Outline: (§1)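 After 5 days of treatment, lung cancer cells in 1536-well plates were fixed and stained in a single step (final 0.05% Triton X-100, 1% formaldehyde, 1 ug/ml Hoechst) and their nuclei counted on 4× images. Treatment had been applied by pin tool the day after seeding as one drug alone or as a fixed anchor-drug dose with five library-drug doses (not always all listed) in √10 steps. Relative viability is the nuclei count of treated wells divided by that of vehicle wells, and values are medians of duplicate plates.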

[2] = tested on: NCI-H647
Outline: as §1

[3] = tested on: NCI-H661
Outline: as §1

[4] = tested on: HARA
Outline: as §1

[5] = tested on: NCI-H1395
Outline: as §1

[6] = tested on: NCI-H1437
Outline: as §1

[7] = tested on: NCI-H2405
Outline: as §1

[8] = tested on: EKVX
Outline: as §1

[9] = tested on: NCI-H1792
Outline: as §1

[10] = tested on: HCC-827
Outline: as §1

[11] = tested on: NCI-H1355
Outline: as §1

[12] = tested on: BEN
Outline: as §1

[13] = tested on: NCI-H1993
Outline: as §1

[14] = tested on: NCI-H2087
Outline: as §1

[15] = tested on: SK-LU-1
Outline: as §1

[16] = tested on: LOU-NH91
Outline: as §1

[17] = tested on: NCI-H2342
Outline: as §1

[18] = tested on: SK-MES-1
Outline: as §1

[19] = tested on: NCI-H522
Outline: as §1

[20] = tested on: NCI-H2009
Outline: as §1

[21] = tested on: NCI-H1734
Outline: as §1

For `CCN(CC)CCCCNc1ncc2cc(-c3cc(OC)cc(OC)c3)c(NC(=O)NC(C)(C)C)nc2n1` + CCNC(=O)c1noc(-c2cc(C(C)C)c(O)cc2O)c1-c1ccc(CN2CCOCC2)cc1 [Luminespib] (partner 0.01 µM), the relative viability ([1]; first compound 0.01 µM) was 0.446, the relative viability ([1]; first compound 0.03162 µM) was 0.857 and the relative viability ([1]; first compound 0.1 µM) was 0.668. The relative viability ([1]; first compound 0.3162 µM) was 0.801, the relative viability ([1]; first compound 1 µM) was 0.937 and the relative viability ([2]; first compound 0.01 µM) was 0.163. The relative viability ([2]; first compound 0.03162 µM) was 0.205, the relative viability ([2]; first compound 0.1 µM) was 0.222 and the relative viability ([2]; first compound 0.3162 µM) was 0.205. The relative viability ([2]; first compound 1 µM) was 0.148, the relative viability ([3]; first compound 0.01 µM) was 0.922 and the relative viability ([3]; first compound 0.03162 µM) was 0.964. For the same molecule, the relative viability ([3]; first compound 0.1 µM) was 0.968, the relative viability ([3]; first compound 0.3162 µM) was 0.982 and the relative viability ([3]; first compound 1 µM) was 0.925. The relative viability ([4]; first compound 0.01 µM) was 1.11, the relative viability ([4]; first compound 0.03162 µM) was 0.896 and the relative viability ([4]; first compound 0.1 µM) was 0.948. It also gave a relative viability ([4]; first compound 0.3162 µM) of 0.904, a relative viability ([4]; first compound 1 µM) of 0.439 and a relative viability ([5]; first compound 0.01 µM) of 0.659. For the same molecule, the relative viability ([5]; first compound 0.03162 µM) was 0.878, the relative viability ([5]; first compound 0.1 µM) was 0.662 and the relative viability ([5]; first compound 0.3162 µM) was 0.65. It also gave a relative viability ([5]; first compound 1 µM) of 0.48, a relative viability ([6]; first compound 0.01 µM) of 1.18 and a relative viability ([6]; first compound 0.03162 µM) of 1.1. For the same molecule, the relative viability ([6]; first compound 0.1 µM) was 1.26, the relative viability ([6]; first compound 0.3162 µM) was 1.1 and the relative viability ([6]; first compound 1 µM) was 1.05. It also gave a relative viability ([7]; first compound 0.01 µM) of 0.649, a relative viability ([7]; first compound 0.03162 µM) of 0.644 and a relative viability ([7]; first compound 0.1 µM) of 0.76. The relative viability ([7]; first compound 0.3162 µM) was 0.654, the relative viability ([7]; first compound 1 µM) was 0.684 and the relative viability ([8]; first compound 0.01 µM) was 0.842. For the same molecule, the relative viability ([8]; first compound 0.03162 µM) was 0.909, the relative viability ([8]; first compound 0.1 µM) was 0.934 and the relative viability ([8]; first compound 0.3162 µM) was 0.971. It also gave a relative viability ([8]; first compound 1 µM) of 0.83, a relative viability ([9]; first compound 0.01 µM) of 0.38 and a relative viability ([9]; first compound 0.03162 µM) of 0.388. For the same molecule, the relative viability ([9]; first compound 0.1 µM) was 0.536, the relative viability ([9]; first compound 0.3162 µM) was 0.37 and the relative viability ([9]; first compound 1 µM) was 0.282. It also gave a relative viability ([10]; first compound 0.01 µM) of 0.675, a relative viability ([10]; first compound 0.03162 µM) of 0.891 and a relative viability ([10]; first compound 0.1 µM) of 0.77. For the same molecule, the relative viability ([10]; first compound 0.3162 µM) was 0.774, the relative viability ([10]; first compound 1 µM) was 0.587 and the relative viability ([11]; first compound 0.01 µM) was 0.795. For the same molecule, the relative viability ([11]; first compound 0.03162 µM) was 0.824, the relative viability ([11]; first compound 0.1 µM) was 0.704 and the relative viability ([11]; first compound 0.3162 µM) was 0.738. For the same molecule, the relative viability ([11]; first compound 1 µM) was 0.649, the relative viability ([12]; first compound 0.01 µM) was 0.249 and the relative viability ([12]; first compound 0.03162 µM) was 0.243. For the same molecule, the relative viability ([12]; first compound 0.1 µM) was 0.545, the relative viability ([12]; first compound 0.3162 µM) was 0.496 and the relative viability ([12]; first compound 1 µM) was 0.297. For the same molecule, the relative viability ([13]; first compound 0.01 µM) was 0.401, the relative viability ([13]; first compound 0.03162 µM) was 0.715 and the relative viability ([13]; first compound 0.1 µM) was 0.771. It also gave a relative viability ([13]; first compound 0.3162 µM) of 0.97, a relative viability ([13]; first compound 1 µM) of 0.666 and a relative viability ([14]; first compound 0.01 µM) of 0.172. It also gave a relative viability ([14]; first compound 0.03162 µM) of 0.154, a relative viability ([14]; first compound 0.1 µM) of 0.161 and a relative viability ([14]; first compound 0.3162 µM) of 0.177. It also gave a relative viability ([14]; first compound 1 µM) of 0.158, a relative viability ([15]; first compound 0.01 µM) of 0.199 and a relative viability ([15]; first compound 0.03162 µM) of 0.197. For the same molecule, the relative viability ([15]; first compound 0.1 µM) was 0.197, the relative viability ([15]; first compound 0.3162 µM) was 0.236 and the relative viability ([15]; first compound 1 µM) was 0.168. The relative viability ([16]; first compound 0.01 µM) was 0.338, the relative viability ([16]; first compound 0.03162 µM) was 0.364 and the relative viability ([16]; first compound 0.1 µM) was 0.36. It also gave a relative viability ([16]; first compound 0.3162 µM) of 0.421, a relative viability ([16]; first compound 1 µM) of 0.356 and a relative viability ([17]; first compound 0.01 µM) of 0.775. For the same molecule, the relative viability ([17]; first compound 0.03162 µM) was 0.833, the relative viability ([17]; first compound 0.1 µM) was 0.768 and the relative viability ([17]; first compound 0.3162 µM) was 0.633. It also gave a relative viability ([17]; first compound 1 µM) of 0.811, a relative viability ([18]; first compound 0.01 µM) of 0.97 and a relative viability ([18]; first compound 0.03162 µM) of 0.762. For the same molecule, the relative viability ([18]; first compound 0.1 µM) was 0.832, the relative viability ([18]; first compound 0.3162 µM) was 0.798 and the relative viability ([18]; first compound 1 µM) was 0.576. For the same molecule, the relative viability ([19]; first compound 0.01 µM) was 1.14, the relative viability ([19]; first compound 0.03162 µM) was 1.08 and the relative viability ([19]; first compound 0.1 µM) was 1.15. It also gave a relative viability ([19]; first compound 0.3162 µM) of 1.13, a relative viability ([19]; first compound 1 µM) of 1.11 and a relative viability ([20]; first compound 0.01 µM) of 1.15. It also gave a relative viability ([20]; first compound 0.03162 µM) of 0.983, a relative viability ([20]; first compound 0.1 µM) of 1.13 and a relative viability ([20]; first compound 0.3162 µM) of 1.1. It also gave a relative viability ([20]; first compound 1 µM) of 0.931, a relative viability ([21]; first compound 0.01 µM) of 0.0982 and a relative viability ([21]; first compound 0.03162 µM) of 0.189. The relative viability ([21]; first compound 0.1 µM) was 0.19, the relative viability ([21]; first compound 0.3162 µM) was 0.197 and the relative viability ([21]; first compound 1 µM) was 0.178.
